Activity calls are given as the source filed them. The rule behind the calls is not given here.
Tests used:
[1] = Toxicity in human COLO 205 cells xenografted CD1 nu/nu mouse assessed as change in ileum histology at 50 mg/kg, po administered daily via gavage for 2 cycles of 3 weeks on/1 week rest and measured on day 41 to 69 by histopathological analysis; type: organism-based; details: in vivo, time 41-69 day
COLO 205 [2] = experiment: In vivo inhibition of CDK4/CDK6 in human COLO 205 cells xenografted CD1 nu/nu mouse assessed as reduction in pHH3 expression at 12.5 to 50 mg/kg, po administered via gavage measured after 24 hrs by Western blot analysis; type: functional, organism-based; details: dose 12.5-50 mg/kg
COLO 205 [3] = details: Mus musculus, CD1, dose 100.0 mg/kg, route po, time 21.0 day
MDA-MB-231 = experiment: Cell cycle arrest in human MDA-MB-231 cells assessed as accumulation of cells at S-phase at 2.5 uM measured after 24 hrs by propidium iodide staining based flow cytometry (reference value: 38.27%); type: functional
[4] = Toxicity in human COLO 205 cells xenografted CD1 nu/nu mouse assessed as decrease in red cell mass at 50 mg/kg, po administered daily via gavage for 2 cycles of 3 weeks on/1 week rest and measured on day 41 to 69 by hematological analysis; type: organism-based; details: in vivo, time 41-69 day
[5] = system: T1, Receptor-type tyrosine-protein kinase FLT3 (Homo sapiens), P36888 [D835Y]; details: Sf21, dose 200.0 nM
T1 sequence (whole entry): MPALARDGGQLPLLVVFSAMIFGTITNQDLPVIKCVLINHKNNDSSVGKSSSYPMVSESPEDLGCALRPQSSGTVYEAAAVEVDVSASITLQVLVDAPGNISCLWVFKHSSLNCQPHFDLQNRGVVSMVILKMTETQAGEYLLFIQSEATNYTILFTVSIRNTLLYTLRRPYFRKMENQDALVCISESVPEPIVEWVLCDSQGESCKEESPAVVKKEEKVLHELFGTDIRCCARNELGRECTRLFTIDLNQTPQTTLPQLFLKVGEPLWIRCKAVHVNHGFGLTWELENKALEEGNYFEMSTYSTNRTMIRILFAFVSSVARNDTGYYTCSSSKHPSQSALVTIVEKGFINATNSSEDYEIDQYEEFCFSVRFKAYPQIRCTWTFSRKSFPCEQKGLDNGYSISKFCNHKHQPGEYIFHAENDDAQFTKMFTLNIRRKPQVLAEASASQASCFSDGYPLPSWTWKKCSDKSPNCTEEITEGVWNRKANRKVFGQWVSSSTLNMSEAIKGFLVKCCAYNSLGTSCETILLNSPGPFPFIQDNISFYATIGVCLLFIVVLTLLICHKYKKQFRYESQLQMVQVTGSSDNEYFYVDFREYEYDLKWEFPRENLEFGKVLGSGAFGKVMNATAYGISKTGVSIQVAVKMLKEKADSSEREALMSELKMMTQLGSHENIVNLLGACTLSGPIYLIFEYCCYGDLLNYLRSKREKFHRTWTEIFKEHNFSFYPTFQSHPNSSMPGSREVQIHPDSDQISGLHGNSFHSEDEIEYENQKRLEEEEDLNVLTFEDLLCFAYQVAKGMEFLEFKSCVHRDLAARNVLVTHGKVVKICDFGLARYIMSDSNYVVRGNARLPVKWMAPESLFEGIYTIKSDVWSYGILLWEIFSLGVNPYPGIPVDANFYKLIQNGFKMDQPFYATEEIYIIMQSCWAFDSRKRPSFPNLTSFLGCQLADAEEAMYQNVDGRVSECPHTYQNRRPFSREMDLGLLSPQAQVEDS

[6] = target: T2, Serine/threonine-protein kinase 17A (Homo sapiens) (UniProt Q9UEE5); details: Sf21, dose 200.0 nM
T2 sequence (whole entry): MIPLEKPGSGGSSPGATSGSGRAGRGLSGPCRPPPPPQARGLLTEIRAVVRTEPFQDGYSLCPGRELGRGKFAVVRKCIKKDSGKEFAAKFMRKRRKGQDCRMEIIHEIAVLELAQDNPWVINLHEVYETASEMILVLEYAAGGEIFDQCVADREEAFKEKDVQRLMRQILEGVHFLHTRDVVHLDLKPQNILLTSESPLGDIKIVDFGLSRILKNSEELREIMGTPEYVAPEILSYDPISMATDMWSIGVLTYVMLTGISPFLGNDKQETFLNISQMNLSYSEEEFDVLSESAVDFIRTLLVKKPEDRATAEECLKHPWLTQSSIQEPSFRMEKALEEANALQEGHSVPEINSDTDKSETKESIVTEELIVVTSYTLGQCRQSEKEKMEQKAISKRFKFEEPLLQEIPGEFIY
Description: Inhibition of recombinant human full-length N-terminal 6His-tagged DRAK1 expressed in baculovirus infected Sf21 cells at 200 nM using ZIPtide as substrate relative to control

COLO 205 [7] = experiment: In vivo inhibition of CDK4/CDK6 in human COLO 205 cells xenografted CD1 nu/nu mouse assessed as reduction in TopoIIalpha expression at 12.5 to 50 mg/kg, po administered via gavage measured after 24 hrs by Western blot analysis; type: functional, organism-based; details: dose 12.5-50 mg/kg
MV4-11 = experiment: Cell cycle arrest in human MV4-11 cells assessed as accumulation of cells at G1-phase at 2.5 uM measured after 24 hrs by propidium iodide staining based flow cytometry (reference value: 61.42%); type: functional

In the case of `CCN1CCN(Cc2ccc(Nc3ncc(F)c(-c4cc(F)c5nc(C)n(C(C)C)c5c4)n3)nc2)CC1` [ABEMACICLIB], the Activity [1] is reported as “Non-Toxic”, the inhibition (COLO 205 [2]) is reported as “Active” and the inhibition (COLO 205 [3]) is reported as “Active”. The Activity (MDA-MB-231) was 8.19%, the Activity [4] was “Non-Toxic” and the inhibition [5] was over 90%. For the same molecule, the inhibition [6] was over 90%, the inhibition (COLO 205 [7]) was “Active” and the Activity (MV4-11) was 94.06%.

Reference: ChEMBL document CHEMBL5678811 (Invest New Drugs, 2014)
